According to US20260262643A1, “HERBICIDAL BENZOXAZINES” (FMC CORPORATION, priority 2022, published 2026):

Columns and labels:
blackgrass [1] = experiment: Test A preemergence; format: in vivo, Alopecurus myosuroides
Procedure, shortened: (§1)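 Loam/sand soil; pre-em directed soil spray at planting, post-em spray at 1–2 leaf (2–10 cm). Compound in non-phytotoxic solvent + surfactant. Greenhouse 10 d; visual injury vs untreated, 0 = no effect, 100 = complete control.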

corn [2] = experiment: Test A preemergence; format: in vivo, Zea mays
Procedure, shortened: as §1

foxtail, giant [3] = experiment: Test A preemergence; format: in vivo, Setaria faberi
Procedure, shortened: as §1

goosegrass [4] = experiment: Test A preemergence; format: in vivo, Eleusine indica
Procedure, shortened: as §1

kochia [5] = experiment: Test A preemergence; format: in vivo, Bassia scoparia
Procedure, shortened: as §1

oat, wild [6] = experiment: Test A preemergence; format: in vivo, Avena fatua
Procedure, shortened: as §1

pigweed, palmer [7] = experiment: Test A preemergence; format: in vivo, Amaranthus palmeri
Procedure, shortened: as §1

ragweed [8] = experiment: Test A preemergence; format: in vivo, Ambrosia artemisiifolia
Procedure, shortened: as §1

ryegrass, Italian [9] = experiment: Test A preemergence; format: in vivo, Lolium multiflorum
Procedure, shortened: as §1

soybean [10] = experiment: Test A preemergence; format: in vivo, Glycine max
Procedure, shortened: as §1

wheat [11] = experiment: Test A preemergence; format: in vivo, Triticum aestivum
Procedure, shortened: as §1

blackgrass [12] = experiment: Test A postemergence; format: in vivo, Alopecurus myosuroides
Procedure, shortened: as §1

corn [13] = experiment: Test A postemergence; format: in vivo, Zea mays
Procedure, shortened: as §1

foxtail, giant [14] = experiment: Test A postemergence; format: in vivo, Setaria faberi
Procedure, shortened: as §1

goosegrass [15] = experiment: Test A postemergence; format: in vivo, Eleusine indica
Procedure, shortened: as §1

kochia [16] = experiment: Test A postemergence; format: in vivo, Bassia scoparia
Procedure, shortened: as §1

oat, wild [17] = experiment: Test A postemergence; format: in vivo, Avena fatua
Procedure, shortened: as §1

pigweed, palmer [18] = experiment: Test A postemergence; format: in vivo, Amaranthus palmeri
Procedure, shortened: as §1

ragweed [19] = experiment: Test A postemergence; format: in vivo, Ambrosia artemisiifolia
Procedure, shortened: as §1

ryegrass, Italian [20] = experiment: Test A postemergence; format: in vivo, Lolium multiflorum
Procedure, shortened: as §1

soybean [21] = experiment: Test A postemergence; format: in vivo, Glycine max
Procedure, shortened: as §1

wheat [22] = experiment: Test A postemergence; format: in vivo, Triticum aestivum
Procedure, shortened: as §1

galium = experiment: Test A postemergence; format: in vivo, Galium aparine
Procedure, shortened: as §1

horseweed = experiment: Test A postemergence; format: in vivo, Erigeron canadensis
Procedure, shortened: as §1

barnyardgrass = experiment: Test B flooded paddy test; format: in vivo, Echinochloa crus-galli; conditions: 250 g ai/ha, Flood, 13 days, 0 to 100 scale (0 no effect, 100 complete control)
Procedure, shortened: (§2)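 Compound is introduced into paddy water covering soil by 3 cm, treating plants that have reached two leaves. Pots are kept flooded at that depth under greenhouse conditions. Assessment at 13 days gives a 0–100 visual control score.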

ducksalad = experiment: Test B flooded paddy test; format: in vivo, Heteranthera limosa; conditions: 250 g ai/ha, Flood, 13 days, 0 to 100 scale (0 no effect, 100 complete control)
Procedure, shortened: as §2

rice = experiment: Test B flooded paddy test; format: in vivo, Oryza sativa; conditions: 250 g ai/ha, Flood, 13 days, 0 to 100 scale (0 no effect, 100 complete control)
Procedure, shortened: as §2

sedge, umbrella = experiment: Test B flooded paddy test; format: in vivo, Cyperus difformis; conditions: 250 g ai/ha, Flood, 13 days, 0 to 100 scale (0 no effect, 100 complete control)
Procedure, shortened: as §2

[23] = 125 g ai/ha, visual injury after 10 days, 0 to 100 scale, 0 is no effect, 100 is complete control
[24] = 500 g ai/ha, 0 to 100 scale (0 no effect, 100 complete control), 10 days
[25] = 125 g ai/ha, postemergence, 10 days, visual injury, 0 to 100 scale (0 no effect, 100 complete control)
[26] = 500 g ai/ha, Postemergence, 0 to 100 scale

Cc1cccc2c1O[C@@H](C)CN2C(=O)c1cccc(-n2cnc(C(C)C)n2)c1 [Compound 55]
Plant response rating, Blackgrass (blackgrass [1]; [23]): 80
Plant response rating, Blackgrass (blackgrass [1]; [24]): 90
Plant response rating, Corn (corn [2]; [23]): 0
Plant response rating, Corn (corn [2]; [24]): 30
Plant response rating, Foxtail, Giant (foxtail, giant [3]; [23]): 100
Plant response rating, Foxtail, Giant (foxtail, giant [3]; [24]): 100
Plant response rating, Goosegrass (goosegrass [4]; [23]): 100
Plant response rating, Goosegrass (goosegrass [4]; [24]): 100
Plant response rating, Kochia (kochia [5]; [23]): 90
Plant response rating, Kochia (kochia [5]; [24]): 100
Plant response rating, Oat, Wild (oat, wild [6]; [23]): 70
Plant response rating, Oat, Wild (oat, wild [6]; [24]): 90
Plant response rating, Pigweed, Palmer (pigweed, palmer [7]; [23]): 80
Plant response rating, Pigweed, Palmer (pigweed, palmer [7]; [24]): 90
Plant response rating, Ragweed (ragweed [8]; [23]): 20
Plant response rating, Ragweed (ragweed [8]; [24]): 40
Plant response rating, Ryegrass, Italian (ryegrass, Italian [9]; [23]): 80
Plant response rating, Ryegrass, Italian (ryegrass, Italian [9]; [24]): 100
Plant response rating, Soybean (soybean [10]; [23]): 30
Plant response rating, Soybean (soybean [10]; [24]): 100
Plant response rating, Wheat (wheat [11]; [23]): 40
Plant response rating, Wheat (wheat [11]; [24]): 60
Plant response rating, Blackgrass (blackgrass [12]; [25]): 60
Plant response rating, Blackgrass (blackgrass [12]; [26]): 80
Plant response rating, Corn (corn [13]; [25]): 40
Plant response rating, Corn (corn [13]; [26]): 80
Plant response rating, Foxtail, Giant (foxtail, giant [14]; [25]): 100
Plant response rating, Foxtail, Giant (foxtail, giant [14]; [26]): 100
Plant response rating, Goosegrass (goosegrass [15]; [25]): 50
Plant response rating, Goosegrass (goosegrass [15]; [26]): 90
Plant response rating, Kochia (kochia [16]; [25]): 80
Plant response rating, Kochia (kochia [16]; [26]): 90
Plant response rating, Oat, Wild (oat, wild [17]; [25]): 40
Plant response rating, Oat, Wild (oat, wild [17]; [26]): 80
Plant response rating, Pigweed, Palmer (pigweed, palmer [18]; [25]): 40
Plant response rating, Pigweed, Palmer (pigweed, palmer [18]; [26]): 60
Plant response rating, Ragweed (ragweed [19]; [25]): 50
Plant response rating, Ragweed (ragweed [19]; [26]): 70
Plant response rating, Ryegrass, Italian (ryegrass, Italian [20]; [25]): 50
Plant response rating, Ryegrass, Italian (ryegrass, Italian [20]; [26]): 100
Plant response rating, Soybean (soybean [21]; [25]): 100
Plant response rating, Soybean (soybean [21]; [26]): 100
Plant response rating, Wheat (wheat [22]; [25]): 40
Plant response rating, Wheat (wheat [22]; [26]): 60
Plant response rating, Galium (galium; [25]): 100
Plant response rating, Galium (galium; [26]): 100
Plant response rating, Horseweed (horseweed; [25]): 0
Plant response rating, Horseweed (horseweed; [26]): 30
Plant response rating, Barnyardgrass (barnyardgrass): 30
Plant response rating, Ducksalad (ducksalad): 75
Plant response rating, Rice (rice): 0
Plant response rating, Sedge, Umbrella (sedge, umbrella): 95
